{"source": "patent US6605595B1", "about": "“Avermectin derivatives” (The Kitasato Institute, priority 1999, dated 2003)", "tested_on": "Adult Musca domestica of WHO(N) species", "test": "Filter test on flies (Musca domestica), ingestion/contact method", "type": "in vivo", "details": "time of reading not stated (1, 3, 5 and 24 hours)", "method": "Filter test on flies (Musca domestica)—ingestion/contact method\nTest animals: Adult Musca domestica of WHO(N) species\nIn order to prepare a suitable formulation a solution of active compound is prepared froom 20 mg of active compound and 1 ml of DMSO. The active compound solution is diluted with water to the concentration required in each case.\n2 ml of this preparation of active compound are pipetted onto filter paper discs (of a diameter of 9.5 cm) contained in Petri dishes of the appropriate size. After drying the filter discs, 100 μl of the active compound formulation and 400 μl of a sugar solution are poured onto a block of household sponge cloth measuring 1 cm^2 and placed in a blister well on the filter disc. 25 CO2-intoxicated test animals are transferred to the Petri dishes and covered.\nAfter 1, 3, 5 and 24 hours the activity of the active compound preparation is determined. 100% means that all of the flies have been destroyed; 0% means that none of the flies have been destroyed."}
{"smiles": "CCC(C)C1OC2(C=CC1C)CC1CC(CC=C(C)C(OC3CC(OC)C(OC4CC(OC)C(=CCNOC)C(C)O4)C(C)O3)C(C)C=CC=C3COC4C(O)C(C)=CC(C(=O)O1)C34O)O2", "note": "(centres unmarked) [Compound 69]", "values": [{"measurement": "activity (100% = all of the flies destroyed)", "setting": "10 ppm", "value": 50, "unit": "%"}, {"measurement": "activity (100% = all of the flies destroyed)", "setting": "100 ppm", "value": 100, "unit": "%"}]}
